Results from PubChem BioAssay AID1919010 (Molecular Pharmacology Branch, DTP, NCI, 2023).

Test system: Hs578T complex spheroid growth, percent test/control
Test: Anticancer human tumor Hs578T cell line growth inhibition [AhR];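 also: luminescent viability signal as a proxy for spheroid growth; spheroids exposed to agents for one week after three days of growth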
Conditions: for IC50: curve of first compound; for viability, T/C: stronger effect = lower value
Procedure, shortened: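 Spheroids combined tumor cells with HUVEC endothelial cells and human MSCs as stroma. AhR antagonists were paired with standard or investigational drugs, each dosed in half-log steps down from near clinical Cmax, or from 10 microM where Cmax was unknown.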

[1] = second compound 0.1 µM, first compound 0.0316 µM
[2] = second compound 0.1 µM, first compound 0.1 µM
[3] = second compound 0.1 µM, first compound 0.316 µM
[4] = second compound 0.1 µM, first compound 1 µM
[5] = second compound 0.1 µM, first compound 3.16 µM
[6] = second compound 0.1 µM, first compound 10 µM
[7] = second compound 0.316 µM, first compound 0.0316 µM
[8] = second compound 0.316 µM, first compound 0.1 µM
[9] = second compound 0.316 µM, first compound 0.316 µM
[10] = second compound 0.316 µM, first compound 1 µM
[11] = second compound 0.316 µM, first compound 3.16 µM
[12] = second compound 0.316 µM, first compound 10 µM
[13] = second compound 1 µM, first compound 0.0316 µM
[14] = second compound 1 µM, first compound 0.1 µM
[15] = second compound 1 µM, first compound 0.316 µM
[16] = second compound 1 µM, first compound 1 µM
[17] = second compound 1 µM, first compound 3.16 µM
[18] = second compound 1 µM, first compound 10 µM
[19] = second compound 3.16 µM, first compound 0.0316 µM
[20] = second compound 3.16 µM, first compound 0.1 µM
[21] = second compound 3.16 µM, first compound 0.316 µM
[22] = second compound 3.16 µM, first compound 1 µM
[23] = second compound 3.16 µM, first compound 3.16 µM
[24] = second compound 3.16 µM, first compound 10 µM
[25] = second compound 10 µM, first compound 0.0316 µM
[26] = second compound 10 µM, first compound 0.1 µM
[27] = second compound 10 µM, first compound 0.316 µM
[28] = second compound 10 µM, first compound 1 µM
[29] = second compound 10 µM, first compound 3.16 µM
[30] = second compound 10 µM, first compound 10 µM

Compound: CC1(C)CCC(CN2CCN(c3ccc(C(=O)NS(=O)(=O)c4ccc(NCC5CCOCC5)c([N+](=O)[O-])c4)c(Oc4cnc5[nH]ccc5c4)c3)CC2)=C(c2ccc(Cl)cc2)C1 + Cc1cncc(-c2nc(NCCc3c[nH]c4ccccc34)c3ncn(C(C)C)c3n2)c1
- IC50 (second compound 0.1 µM): > 10 µM
- IC50 (second compound 0.316 µM): > 10 µM
- IC50 (second compound 1 µM): > 10 µM
- IC50 (second compound 3.16 µM): > 10 µM
- IC50 (second compound 10 µM): < 0.0316 µM
- viability, T/C [1]: 117%
- viability, T/C [2]: 118%
- viability, T/C [3]: 115%
- viability, T/C [4]: 94.8%
- viability, T/C [5]: 95.9%
- viability, T/C [6]: 82.6%
- viability, T/C [7]: 117%
- viability, T/C [8]: 118%
- viability, T/C [9]: 112%
- viability, T/C [10]: 109%
- viability, T/C [11]: 105%
- viability, T/C [12]: 97.4%
- viability, T/C [13]: 113%
- viability, T/C [14]: 111%
- viability, T/C [15]: 109%
- viability, T/C [16]: 108%
- viability, T/C [17]: 111%
- viability, T/C [18]: 92.8%
- viability, T/C [19]: 49.6%
- viability, T/C [20]: 65.6%
- viability, T/C [21]: 65.5%
- viability, T/C [22]: 56.4%
- viability, T/C [23]: 69.2%
- viability, T/C [24]: 75.2%
- viability, T/C [25]: 3.98%
- viability, T/C [26]: 3.8%
- viability, T/C [27]: 4.95%
- viability, T/C [28]: 5.32%
- viability, T/C [29]: 4.95%
- viability, T/C [30]: 8.06%

Compound: CCN(c1cc(-c2ccc(CN3CCOCC3)cc2)cc(C(=O)NCc2c(C)cc(C)[nH]c2=O)c1C)C1CCOCC1 + Cc1cncc(-c2nc(NCCc3c[nH]c4ccccc34)c3ncn(C(C)C)c3n2)c1
- IC50 (second compound 0.1 µM): > 3 µM
- IC50 (second compound 0.316 µM): > 3 µM
- IC50 (second compound 1 µM): > 3 µM
- IC50 (second compound 3.16 µM): < 0.00949 µM
- IC50 (second compound 10 µM): < 0.00949 µM
- viability, T/C (second compound 0.1 µM, first compound 0.00949 µM): 111%
- viability, T/C (second compound 0.1 µM, first compound 0.03 µM): 95.9%
- viability, T/C (second compound 0.1 µM, first compound 0.0949 µM): 101%
- viability, T/C (second compound 0.1 µM, first compound 0.3 µM): 107%
- viability, T/C (second compound 0.1 µM, first compound 0.949 µM): 94.4%
- viability, T/C (second compound 0.1 µM, first compound 3 µM): 106%
- viability, T/C (second compound 0.316 µM, first compound 0.00949 µM): 111%
- viability, T/C (second compound 0.316 µM, first compound 0.03 µM): 99.9%
- viability, T/C (second compound 0.316 µM, first compound 0.0949 µM): 106%
- viability, T/C (second compound 0.316 µM, first compound 0.3 µM): 96.6%
- viability, T/C (second compound 0.316 µM, first compound 0.949 µM): 99.5%
- viability, T/C (second compound 0.316 µM, first compound 3 µM): 90.7%
- viability, T/C (second compound 1 µM, first compound 0.00949 µM): 103%
- viability, T/C (second compound 1 µM, first compound 0.03 µM): 102%
- viability, T/C (second compound 1 µM, first compound 0.0949 µM): 101%
- viability, T/C (second compound 1 µM, first compound 0.3 µM): 93.5%
- viability, T/C (second compound 1 µM, first compound 0.949 µM): 105%
- viability, T/C (second compound 1 µM, first compound 3 µM): 93.3%
- viability, T/C (second compound 3.16 µM, first compound 0.00949 µM): 49.8%
- viability, T/C (second compound 3.16 µM, first compound 0.03 µM): 46.4%
- viability, T/C (second compound 3.16 µM, first compound 0.0949 µM): 51.5%
- viability, T/C (second compound 3.16 µM, first compound 0.3 µM): 48%
- viability, T/C (second compound 3.16 µM, first compound 0.949 µM): 46%
- viability, T/C (second compound 3.16 µM, first compound 3 µM): 51.7%
- viability, T/C (second compound 10 µM, first compound 0.00949 µM): 6.41%
- viability, T/C (second compound 10 µM, first compound 0.03 µM): 5.56%
- viability, T/C (second compound 10 µM, first compound 0.0949 µM): 7.45%
- viability, T/C (second compound 10 µM, first compound 0.3 µM): 5.08%
- viability, T/C (second compound 10 µM, first compound 0.949 µM): 5.95%
- viability, T/C (second compound 10 µM, first compound 3 µM): 3.67%

Compound: Cn1ncnc1C1c2n[nH]c(=O)c3cc(F)cc(c23)NC1c1ccc(F)cc1 (stereo not given) + Cc1cncc(-c2nc(NCCc3c[nH]c4ccccc34)c3ncn(C(C)C)c3n2)c1
- IC50 (second compound 0.1 µM): > 0.1 µM
- IC50 (second compound 0.316 µM): > 0.1 µM
- IC50 (second compound 1 µM): > 0.1 µM
- IC50 (second compound 3.16 µM): > 0.1 µM
- IC50 (second compound 10 µM): < 0.000316 µM
- viability, T/C (second compound 0.1 µM, first compound 0.000316 µM): 103%
- viability, T/C (second compound 0.1 µM, first compound 0.001 µM): 104%
- viability, T/C (second compound 0.1 µM, first compound 0.00316 µM): 112%
- viability, T/C (second compound 0.1 µM, first compound 0.01 µM): 99%
- viability, T/C [1]: 111%
- viability, T/C [2]: 108%
- viability, T/C (second compound 0.316 µM, first compound 0.000316 µM): 107%
- viability, T/C (second compound 0.316 µM, first compound 0.001 µM): 115%
- viability, T/C (second compound 0.316 µM, first compound 0.00316 µM): 116%
- viability, T/C (second compound 0.316 µM, first compound 0.01 µM): 106%
- viability, T/C [7]: 97.4%
- viability, T/C [8]: 108%
- viability, T/C (second compound 1 µM, first compound 0.000316 µM): 101%
- viability, T/C (second compound 1 µM, first compound 0.001 µM): 105%
- viability, T/C (second compound 1 µM, first compound 0.00316 µM): 98%
- viability, T/C (second compound 1 µM, first compound 0.01 µM): 98.5%
- viability, T/C [13]: 97%
- viability, T/C [14]: 97.6%
- viability, T/C (second compound 3.16 µM, first compound 0.000316 µM): 67.8%
- viability, T/C (second compound 3.16 µM, first compound 0.001 µM): 73.3%
- viability, T/C (second compound 3.16 µM, first compound 0.00316 µM): 72.4%
- viability, T/C (second compound 3.16 µM, first compound 0.01 µM): 69%
- viability, T/C [19]: 70.5%
- viability, T/C [20]: 64.1%
- viability, T/C (second compound 10 µM, first compound 0.000316 µM): 8.48%
- viability, T/C (second compound 10 µM, first compound 0.001 µM): 9.41%
- viability, T/C (second compound 10 µM, first compound 0.00316 µM): 9.77%
- viability, T/C (second compound 10 µM, first compound 0.01 µM): 7.44%
- viability, T/C [25]: 9.58%
- viability, T/C [26]: 9.69%

Compound: NS(=O)(=O)OCC1CC(n2ccc3c(NC4CCc5ccccc54)ncnc32)CC1O (stereo not given) + Cc1cncc(-c2nc(NCCc3c[nH]c4ccccc34)c3ncn(C(C)C)c3n2)c1
- IC50 (second compound 0.1 µM): 2.9 µM
- IC50 (second compound 0.316 µM): 2.84 µM
- IC50 (second compound 1 µM): 2.14 µM
- IC50 (second compound 3.16 µM): 0.774 µM
- IC50 (second compound 10 µM): < 0.0316 µM
- viability, T/C [1]: 114%
- viability, T/C [2]: 94.9%
- viability, T/C [3]: 83.3%
- viability, T/C [4]: 60.2%
- viability, T/C [5]: 51%
- viability, T/C [6]: 35.1%
- viability, T/C [7]: 128%
- viability, T/C [8]: 100%
- viability, T/C [9]: 84.2%
- viability, T/C [10]: 60.6%
- viability, T/C [11]: 48.2%
- viability, T/C [12]: 39.6%
- viability, T/C [13]: 115%
- viability, T/C [14]: 98.9%
- viability, T/C [15]: 99.4%
- viability, T/C [16]: 59.4%
- viability, T/C [17]: 48.3%
- viability, T/C [18]: 36.6%
- viability, T/C [19]: 69.2%
- viability, T/C [20]: 66%
- viability, T/C [21]: 66.1%
- viability, T/C [22]: 45.4%
- viability, T/C [23]: 35.4%
- viability, T/C [24]: 38.3%
- viability, T/C [25]: 6.36%
- viability, T/C [26]: 6.52%
- viability, T/C [27]: 7.75%
- viability, T/C [28]: 5.11%
- viability, T/C [29]: 5.06%
- viability, T/C [30]: 3.64%
